From patent US5929079A, “Trans cyclopentanyl azaadenyl analogs useful as immunosuppressants” (Hoechst Marion Roussel, Inc., priority 1997, dated 1999)
Counter-ions that a name gives are not always drawn.

Tests used:
[1] = system: endotoxin lethality in CF1 mice; assay: Mouse endotoxin lethality model (D-galactosamine/LPS septic shock); format: in vivo; settings: 100 mg/kg i.p., pretreated at t=-1 hr; death observed over 8-72 hours
Protocol: Using the method of Silverstein, (J. Exp. Med. 173, 357 (1991)) a mouse endotoxin lethality model may be used to determine if a compound of formula (1) has the ability to inhibit endotoxin-induced septic shock which is dependent on the production of Tumor Necrosis Factor-a (TNF-α). CF1 mice pretreated at time (t)=-1 hr with drug are challenged with 18 mg of D-glactoseamine and 50 ng of LPS, then observed for death over an 8-72 hour period.

[2] = system: macrophage antigen presentation to Lewis (LEW/N) rat T-cell hybridoma (Interleukin-2 production); assay: Regulation of antigen presentation to rat T-cell hybridoma (Interleukin-2 production); format: cell-based
Protocol: Using the method of Ku (Cellular Immunology 130,(1990)), and a Lewis (LEW/N) rat T-cell hybridoma reactive with the protein methylated bovine serum albumin (mBSA), the ability of a compound of formula (1) to regulate M.phi. antigen presentation in vitro may be measured. Peritoneal macrophages obtained from LEW/N rats are plated into tissue culture and treated with 100 ug of mBSA and drug. A control is prepared similarly. After a period of 18 hours the cells are washed and incubated with the T-cell hybridoma for an additional 12 hours. Supernatants from these cultures are obtained and measured for content of Interleukin-2, a T-cell derived lymphokine which is roduced by activated T-cells. […] Rat macrophage antigen presentation and the subsequent production of Interleukin-2 are inhibited when rug is administered over a concentration range from 0.1 to 100 uM as illustrated in the following table.

SMILES: Nc1ncnc2c1ncn2[C@@H]1CC[C@@H](O)C1 [(1R,3R)-TRANS-1(9-ADENYL)CYCLOPENTAN-3-OL HYDROCHLORIDE]
- protection against endotoxin lethality [1]: protects against endotoxin lethality
- Rat macrophage antigen presentation and subsequent production of Interleukin-2 ([2]; 0.1 to 100 uM): inhibited
- T-cell activation ([2]; in vitro): inhibits T-cell ctivation
